Experimental data published in patent US20220146492A1, “CELL MEMBRANE PERMEABILITY RESTORING THERAPY” (priority 2019, published 2022).

System: RBCs
Test: Cell scan of RBC membrane permeability (Pk0) after contacting whole blood from a healthy volunteer with an agent
Format: cell-based, human
Conditions: for Induction of water permeability resistance (decreased RBC membrane permeability to water): agents at concentrations consistent with in vivo concentration; for Pk0 (mOsm/kg): whole blood in ACD, healthy volunteer, measured after exposure (method: five minutes), lactose 1:20 (v/v) saturated lactose solution, amphotericin B 0.5 μg/mL
Description: A sample of whole blood from a healthy volunteer was drawn into ACD anticoagulant. The unwashed sample was divided into aliquots and was analyzed using the Prior Shine Technology and/or the Provided Cell Scanning Technologies. The following outputs were obtained from the sample:
Using the technologies described herein, a cell-by-cell analysis was converted into a plot of percent change of cell volume vs. osmolality (“Cell Scan Plot”) by converting the individual peak voltage into a cell volume, then calculating a mean volume for an aliquot of cells, and plotting the means to generate the Cell Scan Plot. The percentage change of cell volume at each osmolality is calculated and compared to the mean cell volume of an isotonic cell (e.g., FIG. 1b). On such a plot, Pk0 (see 101) is the osmotic pressure at which the net water flow is zero (i.e., when a cell achieved its maximum volume, i.e., when it is a perfect sphere). As described herein, in some embodiments, Pk0 can be used as an indicator of an individual's health status.
A sample of whole blood from a healthy volunteer was drawn into ACD anticoagulant. Blood samples were divided into aliquots, and each sample was contacted with an agent at concentrations consistent with the agent's in vivo concentration. Agents that were tested included alcohols, alpha fetoproteins, amphotericin B, bovine albumen, carcinoembryonic antigen (CEA), concanavalin A (Con A), fetuin, fibronectin, 5-HT, kallikrein, ovomucoid, prostacyclin, prostaglandin, semen, transferrin, and several sugars, including N-acetyl-D-glucosamine, N-acetyl neurominic acid, 2-deoxy-D-ribose, fructose, D- and L-arabinose, beta-D-galactopyranoside, erythrose, D- and L-fucose, D- and L-glucose, D-galactose, lactose, maltose, iso-maltose, D-mannose, mannitol, L-rhamnose, ribose, sucrose, and D-xylose. Five minutes after exposure to an agent, the blood sample was evaluated for cell membrane permeability and Pk0 was measured. […] Lactose ([…]) lowered Pk0 to 110 mOsm/kg.
A sample of whole blood from a healthy volunteer was drawn into ACD anticoagulant. The sample was then treated with 5-HT (900 ng/mL), and cell membrane permeability was evaluated 5 minutes after treatment.

Structure (SMILES)	Pk0 lowered to (after 10 minutes) [mOsm/kg]	Induction of water permeability resistance (decreased RBC membrane permeability to water)	Pk0 (mOsm/kg) (5-HT 900 ng/mL)	Pk0 after treatment with 5-HT (5-HT 900 ng/mL, 5 minutes after treatment, normal Pk0 before approx. 140 mOsm/kg (FIG. 8))	Pk0 shift after contacting with 5-HT (FIG. 8, RBCs from normal healthy individual, before vs after 5-HT)
OC[C@H]1O[C@@H](O[C@H]2[C@H](O)[C@@H](O)C(O)O[C@@H]2CO)[C@H](O)[C@@H](O)[C@H]1O (stereo partly drawn) [Lactose]	110	identified as RBC membrane permeability decreasing agents	110	–	–
NCCc1c[nH]c2ccc(O)cc12 [Agent 5-HT, 5-hydroxytryptamine]	–	effective within minutes	110	approx. 110 mOsm/kg	approx. 30 mOsm/kg
C[C@@H]1[C@H](O)[C@@H](C)/C=C/C=C/C=C/C=C/C=C/C=C/C=C/[C@H](O[C@@H]2O[C@H](C)[C@@H](O)[C@H](N)[C@@H]2O)C[C@@H]2O[C@](O)(C[C@@H](O)C[C@@H](O)[C@H](O)CC[C@@H](O)C[C@@H](O)CC(=O)O[C@H]1C)C[C@H](O)[C@H]2C(=O)O [Amphotericin B]	–	identified as RBC membrane permeability decreasing agents	85	–	–
